Data published in US20030187261A1, “Purine derivatives, process for their preparation and use thereof” (priority 2000, published 2003).
Values belong to the molecule of their own block, whether it stands above or below them.

Legend:
IκB-α = IκB-α kinase-inhibitory activity; assay type: biochemical
Source text: Modification of 2,6,9-trisubstituted purines by a catechol-like substituent at R6 leads to an increase in cdk inhibitory activity of the tested compounds.

CDC2 = target: T1, CDC2 (Homo sapiens, UniProt P06493); test: p34cdc2 (CDC2) kinase inhibition assay, histone H1 substrate; assay type: biochemical
T1 construct: made in house; host or cells: Sf9 insect cells, baculovirus co-infection
T1 sequence (P06493 whole entry, species assumed): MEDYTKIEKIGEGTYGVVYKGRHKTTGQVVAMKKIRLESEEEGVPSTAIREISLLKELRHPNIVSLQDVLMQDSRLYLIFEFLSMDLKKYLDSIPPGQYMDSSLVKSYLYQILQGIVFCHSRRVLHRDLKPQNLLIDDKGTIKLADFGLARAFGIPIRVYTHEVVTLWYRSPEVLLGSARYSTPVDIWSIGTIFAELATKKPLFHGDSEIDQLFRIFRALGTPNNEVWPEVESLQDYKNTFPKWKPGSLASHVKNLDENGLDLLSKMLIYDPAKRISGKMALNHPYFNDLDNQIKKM
T1 sequence (P14635 whole entry partner, species assumed): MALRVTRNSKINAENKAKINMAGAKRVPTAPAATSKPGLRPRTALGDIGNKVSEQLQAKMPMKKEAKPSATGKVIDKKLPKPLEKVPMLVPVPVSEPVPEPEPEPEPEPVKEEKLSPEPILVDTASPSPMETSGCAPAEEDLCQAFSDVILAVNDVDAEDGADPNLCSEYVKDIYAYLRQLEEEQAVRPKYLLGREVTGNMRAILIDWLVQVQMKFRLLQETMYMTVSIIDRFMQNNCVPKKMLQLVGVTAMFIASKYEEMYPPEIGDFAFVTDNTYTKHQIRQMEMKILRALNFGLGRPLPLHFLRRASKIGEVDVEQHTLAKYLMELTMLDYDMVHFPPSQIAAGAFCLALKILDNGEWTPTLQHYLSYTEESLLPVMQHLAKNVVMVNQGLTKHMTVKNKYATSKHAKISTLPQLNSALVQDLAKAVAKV
Protocol: Cyclin-dependent kinases (p34^cdc2, p33^cdk2, p33^cdk4 and cyclins (cyclin B, E and DI) are produced in Sf9 insect cells coinfected with appropriate baculoviral constructs. The cells are harvested 68-72 hrs post infection in lysis buffer for 30 min on ice and the soluble fraction is recovered by centrifugation at 14.000 g for 10 min. The protein extract is stored at −80° C.
To carry out experiments on kinetics under linear conditions, the final point test system for kinase activity measurement is used. The kinase is added to the reaction mixture in such a way that linear activity is obtained with respect to the concentration of enzyme and with respect to time.
Inhibition of p33^cdk4 kinase is determined with Rb-GST (0.2 mg/ml) as the substrate. Kinase activity is determined at 30° C. in kinase buffer.
Tested compounds are usually dissolved to 100 mM solutions in DMSO, the final concentration of DMSO in reaction mixture never exceeds 1%. The controls contain suitable dilutions of DMSO. After 10 min, the addition of 3×SDS sample buffer stops the incubations. […] The measurement of kinase activity is done using digital image analysis. The kinase activity is expressed as a percentage of maximum activity, the apparent inhibition constants are determined by graphic analysis. Kinase buffer: 50 mM Hepes pH 7.4, 10 mM MgCl21 5 mM EGTA, 10 mM 2-glycerolphosphate,

B16 melanoma = test: MTT cytotoxicity assay, B16; assay type: cell-based, mouse; settings: 72 hours (TCS50 in the method)
Source text: (§1) One of the parameters used as the basis for colorimetric assays is the metabolic activity of viable cells. For example, a microtiter assay, which uses the tetrazolium salt MTT, is now widely used to quantitate cell proliferation and cytotoxicity. For instance, this assay is used in drug screening programs and in chemosensitivity testing. Because only metabolically active cells cleave tetrazolium salts, these assays detect viable cells exclusively. In the case of MTT assay, yellow soluble tetrazolium salt is reduced to coloured water-insoluble formazan salt. After it is solubilized, the formazan formed can easily and rapidly be quantified in a conventional ELISA plate reader at 570 nm (maximum absorbance). The quantity of reduced formazan corresponds to number of vital cells in the culture. Human T-lymphoblastic leukemia cell line CEM; promyelocytic HL-60 and monocytic U937 leukemias; breast carcinoma cell lines MCF-7, BT549, MDA-MB-231; glioblastoma U87MG cells; cervical carcinoma cells HELA; sarcoma cells U20S and Saos2; hepatocellular carcinoma HepG2; mouse immortalized bone marrow macrophages B2.4 and B10A.4; P388D1 and L1210 leukemia; B16 and B16F10 melanomas were used for routine screening of the compounds according to the invention. The cells were maintained in Nunc/Corning 80 cm^2 plastic tissue culture flasks and cultured in cell culture medium (DMEM with 5 g/l glucose, 2 mM glutamine, 100 U/ml penicillin, 100 μg/ml streptomycin, 10% fetal calf serum and sodium bicarbonate).
(§2) The cell suspensions that were prepared and diluted according to the particular cell type and the, expected target cell density (2500-30000 cells per well based on cell growth characteristics) were added by pipette (80 μl) into 96-well microtiter plates. Inoculates were allowed a pre-incubation period of 24 hours at 37° C. and 5% CO2 for stabilisation. Four-fold dilutions of the intended test concentration were added at time zero in 20 μl aliquots to the microtiter plate wells. Usually, test compound was evaluated at six 4-fold dilutions. In routine testing, the highest well concentration was 266.7 μM, but it can be the matter of change dependent on the agent. All drug concentrations were examined in duplicates. Incubations of cells with the test compounds lasted for 72 hours at 37° C., in 5% CO2 atmosphere and 100% humidity. At the end of incubation period, the cells were assayed by using the MTT. Ten microliters of the MTT stock solution were pipetted into each well and incubated further for 1-4 hours. After this incubation period, formazan was solubilized by addition of 100 μl/well of 10% SDS in water (pH=5.5) followed by further incubation at 37° C. overnight. The optical density (OD) was measured at 540 nm with the Labsystem iEMS Reader MF (UK). The tumour cell survival (TCS) was calculated using the following equation: TCS=(ODdrug exposed well/mean ODcontrol wells)×100%. The TCS50 value, the drug concentration lethal to 50% of the tumour cells, was calculated from the obtained dose response curves.
(§3) The cytoxicity of novel compounds was tested on panel of cell lines of different histogenetic and species origin (Table 7). Equal activities were found in all tumour cell lines tested. […] Importantly, this observation distinguishes the purine derivatives of the invention from flavopiridol and related compounds, as their biological activity is dependent on p53 status.

[1] = test system: T-lymphoblastic leukemia cell line CEM; test: MTT cytotoxicity assay, CEM; assay type: cell-based, human; settings: 72 hours (TCS50 in the method)
Source text: as §1, §2, §3

normal human lymphocytes = test: concanavalin A induced lymphocyte proliferation, [3H]-TdR incorporation; assay type: cell-based; settings: 72 hours, read-out: ED50 (the source's name)
Protocol: Human heparinized peripheral blood was obtained from healthy volunteers by cubital vein punction. The blood was diluted in PBS (1:3) and mononuclear cells were separated by centrifugation in Ficoll-Hypaque density gradient (Pharmacia, 1.077 g/ml) at 2200 rpm for 30 minutes. Following centrifugation, lymphocytes were washed in PBS and resuspended in cell culture medium (RMPI 1640, 2 mM glutamine, 100 U/ml penicillin, 100 μg/ml streptomycin, 10% fetal calf serum and sodium bicarbonate).
The cells were diluted at target density of 1100000 cells/ml and were added by pipette (180 μl) into 96/well microtiter plates. Four-fold dilutions of the intended test concentration were added at time zero in 20 μl aliquots to the microtiter plate wells. Usually, test compound was evaluated at six 4-fold dilutions. In routine testing, the highest well concentration was 266.7 μM. All drug concentrations were examined in duplicates. All wells with exception of unstimulated controls were activated with 50 μl of concanavalin A (25 μg/ml). Incubations of cells with test compounds lasted for 72 hours at 37° C., in 5% CO2 atmosphere and 100% humidity. At the end of incubation period, the cells were assayed by using the [^3H]-TdR:
Cell cultures were incubated with […] (20 μl of stock solution 500 μCi/ml) per well for 6 hours at 37° C. and 5% CO2. The automated cell harvester was used to lyse cells in water and adsorb the DNA onto glass-fiber filters in the format of microtiter plate. The DNA incorporated [^3H]-TdR was retained on the filter while unincorporated material passes through. The filters were dried at room temperature overnight, sealed into a sample bag with 10-12 ml of scintillant. The amount of [^3H]-TdR present in each filter (in cpm) was determined by scintillation counting in a Betaplate liquid scintillation counter. The effective dose of immunosuppressant (ED) was calculated using the following equation: ED=(cpmdrug exposed well/mean cpmcontrol wells)×100%. The EDs50 value, the drug concentration inhibiting proliferation of 50% of lymphocytes, was calculated from the obtained dose response curves.
To evaluate immunosuppressive activity of substituted adenines, their ability to inhibit polyclonal mitogen induced proliferation of normal human lymphocytes was analyzed (Table 8). […] Effective immunosuppressive dose of new derivatives under in vitro conditions was close to 1-20 μM.

[2] = test system: T-lymphocyte leukemia Molt3 cell line; test: cell growth of Molt3 cell line, flow cytometric cell count; assay type: cell-based, human; settings: Homo sapiens, MOLT-3; 96 hours of culture
Protocol: Cell lines: Human leukemic cell lines were obtained from the American Type Culture Collection (ATCC, Rockville, Md., USA). They were cultured in Iscove's Modified Dulbecco's Medium (IMDM) supplemented with 10% heat inactivated fetal calf serum (FCS), 200 U/ml penicillin, 200 μg/ml streptomycin and 1 μg/ml amphotericin B. Cells were cultured in a 5% CO2-95% air fully humidified incubator. For effects on clonogenic output, 1000 cells/well were plated in duplicate in methylcellulose (0.9%), supplemented with 20% FCS and cultured for 14 days.
(§4) Cells were plated at 10000 per well in 200 μl IMDM medium and incubated with 0-50 μM of the compounds of the invention (Table 5), by addition of the drugs directly to the culture medium and incubated at 37° C. for 96 hours. Absolute cell number was determined by addition of a known concentration of Fluoresbrite microspheres (FITC) (Polysciences, Inc.). The absolute number of cells per well was calculated as: {(total number of beads added per well)/(number of beads measured)}×(number of measured cells in the gate of interest). All analyses were performed with a FACScan (BD), using CELLQuest software (Becton Dickinson).
The response of the myeloid leukemia KG1 and T-lymphocyte leukemia Molt3 cell lines to the cytostatic effect of the novel compounds was determined using the above-mentioned standardized bead suspension that was used to determine the absolute cell number by flow cytometric (FCM) measurement. Cells were grown in the presence of increasing concentrations of the compounds of the invention.

[3] = test system: myeloid leukemia KG1 cell line; test: cell growth of KG1 cell line, flow cytometric cell count
[4] = test system: adult bone marrow CD34+CD38- cells; test: pre-CFU assay; assay type: cell-based, human; settings: Homo sapiens, 336 h; 14 day liquid culture, total clonogenic output after secondary methylcellulose culture
Source text: […]. Cells with low-to-medium forward and low side scatter, highly positive green (CD34) fluorescence, and an orange (CD38) fluorescence signal lower than the mean fluorescence of cells labeled with an irrelevant isotype-matched control antibody+2 standard deviations were retained as CD34^+CD38^− cells and used in pre-CFU assays.
Pre-CFU assays were initiated by performing liquid cultures of CD34^+CD38^− cells in duplicate in 96-well flat-bottomed plates in IMDM/10% FCS, 1% bovine serum albumin (BSA), 100 U/ml IL-1, 200 U/ml IL-6, 30 U/ml IL-3 and 100 ng/ml stem cell factor (SCF). Pre-CFU cultures were initiated with 500 CD34^+CD38^− cells/well (200 μl). After 14 days of culture at 37° C. in 7.5% O2 and 5% CO2 in a fully humidified incubator, the number of cells in each well was counted. Subsequently, the cells were harvested, washed three times in IMDM/10% FCS, and plated in duplicate at 500 cells/well (1000 μl) in secondary methylcellulose CFU cultures as described for CFU assays.
Pre-CFU were cultured starting from adult bone marrow CD34^+CD38^− cells, that had been isolated using the FCM cell sorter. Novel compounds were added at different concentrations to the primary 14 day liquid culture. IC50 was calculated from dose-response curves from total clonogenic output after secondary methylcellulose culture (Table 5).

β-adrenergic receptors = test: isoproterenol-induced intracellular cAMP synthesis in rat C6 glioma; assay type: cell-based; settings: cAMP induced by 5 μM (−) isoproterenol, 30 min; for Effect: rat C6 glioma; for IC50: read-out: I50
Protocol: Rat C6 glioma (ATCC N° CCL107) was cultivated in monolayer in serum-free chemically defined medium containing Ham's F10/minimal essential medium (1:1 vol/vol), 2 mM L-glutamine, 1% (vol/vol) minimal essential medium vitamins (100×), 1% (vol/vol) minimal essential medium nonessential amino acids (100×), 100 U/ml penicillin, 100 μg/ml streptomycin and 30 nM sodium selenite. Incubation was at 37° C. in a humidified atmosphere. Assays were performed in the logaritmic growth phase at a density of 2.5×10^5 cells/cm^2. Intracellular cAMP synthesis was induced by addition of 5 μM (−) isoproterenol. After 30 min incubation at 37° C. the medium was removed and the cellular amount of cAMP determined using the cAMP-enzyme immunoassay kit of Amersham. The IC50 is determined from a dose-response curve in duplicate. The effect of seven purine-analogs was measured after simultaneous addition with isoproterenol.
As P2Y1-like and A2 purinergic receptors, negatively and positively coupled to adenylate cyclase respectively, are present on rat C6 glioma the modulation of the synthesis of cAMP may be due to inhibition of the activation of β-adrenergic receptors by isoproterenol or to activation of purinergic receptors.

[5] = test system: PHA-stimulated lymphocytes (PBMC); test: cell number of PHA-stimulated lymphocytes (PBMC), flow cytometry; assay type: cell-based, human; settings: Homo sapiens, Lymphocyte; 96 hours, in the presence of IL-2; read-out: Lymphocytes IC50
Protocol: Human peripheral blood mononuclear cells were isolated by density gradient (Ficoll-Hypaque) (LSM, ICN Biomedicals Inc.). PBMC were stimulated with 5 μg/ml phytohemaglutinin A (PHA) (Sigma) during 24-48 hours in IMDM supplemented with 10% FCS (IMDM/10% FCS) at 37° C. After washing off the PHA, PBMC were incubated with interleukin-2 (IL-2) (10 U/ml) (Genzyme).
as §4
The novel compounds were tested for cytotoxicity on PHA-stimulated lymphocytes (PBMC), as one of the normal counterparts of the cell lines. Cells were grown for 96 hours in the presence of IL-2 and different concentrations of the novel compounds and cell number was counted on the flow cytometer.

[6] = test system: CD34+ hematopoietic progenitors (HPC) from adult bone marrow; test: myeloid colony-forming unit (CFU) assay; assay type: cell-based, human
HIV-2 = test: anti-HIV-2 activity in CEM cells; assay type: cell-based
Protocol: The infected cell cultures were incubated at 37° C. for 5 days in a humidified CO2 incubator. The cytopathicity of the virus was examined by determination of MT-4 cell viability by trypan blue dye staining.

IC50 (IκB-α; Table 3, unit nM): 320 nM
IC50 (CDC2; Table 3, unit nM): 250 nM
SMILES: CC(C)[C@H](CO)Nc1nc(NCc2ccc(O)c(O)c2)c2ncn(C(C)C)c2n1

IC50 (IκB-α; Table 3, unit nM): 460 nM
IC50 (CDC2; Table 3, unit nM): 390 nM
SMILES: CC(C)[C@H](CO)Nc1nc(N(C)CCc2ccc(O)c(O)c2)c2ncn(C(C)C)c2n1
IC50 (B16 melanoma): 9 µM
IC50 [1]: 8 µM
EC50 (normal human lymphocytes): 0.54 µM

IC50 (IκB-α; Table 3, unit nM): 670 nM
IC50 (CDC2; Table 3, unit nM): 540 nM
SMILES: CC(C)[C@H](CO)Nc1nc(NC(CO)c2ccccc2)c2ncn(C(C)C)c2n1 (some centres unmarked)

IC50 (IκB-α; Table 3): 10800 nM
IC50 (CDC2; Table 3): 4200 nM
SMILES: Cn1cnc2c(NCc3ccc(O)c(O)c3)nc(NCCO)nc21

IC50 (IκB-α; Table 3): 1250 nM
SMILES: CC[C@H](CO)Nc1nc(NCc2ccc(O)c(O)c2)c2ncn(C(C)C)c2n1
IC50 (B16 melanoma): 9 µM
IC50 [1]: 8 µM

IC50 (IκB-α; Table 3): 2150 nM
SMILES: CC[C@H](CO)Nc1nc(NC(CO)c2ccccc2)c2ncn(C(C)C)c2n1 (some centres unmarked)
IC50 (B16 melanoma): 13.5 µM
IC50 [1]: 15 µM
EC50 (normal human lymphocytes): 12 µM

IC50 (IκB-α; Table 3): 13700 nM
IC50 (CDC2; Table 3): 5600 nM
SMILES: Cn1cnc2c(NC(CO)c3ccccc3)nc(NCCO)nc21 (racemic)

IC50 [2]: 19.3 ± 2.3 µM
IC50 ([3]; Homo sapiens, KG-1, 96 h, read-out: KGI IC50): 16 ± 1.7 µM
IC50 [4]: 20 µM
IC50 (CDC2; Table 5, CDC2 activity in cell free system): 21000 nM
Effect (β-adrenergic receptors): inhibition
IC50 (β-adrenergic receptors): 45 ± 5 µM
IC50 ([6]; Homo sapiens, 336 h, 14 days, methylcellulose, total colony output): 37 µM
SMILES: CC(C)n1cnc2c(NCc3ccccc3)nc(NCCCN)nc21 [P12, 2-(3-aminopropylamino)-6-benzylamino-9-isopropylpurine]
cell number after 6 hours of exposure, wash and 7 days in drug-free medium ([3]; KG1, compared to control without novel compounds): (some) recovery of cell number
CC50 [5]: 8 ± 1.2 µM
output of the different types of myeloid colonies (CFU-E, CFU-G and CFU-M) ([6]; scored differentially): significantly lower colony output

Effect (β-adrenergic receptors): inhibition
IC50 (β-adrenergic receptors): 45 ± 5 µM
SMILES: CC(C)C(CO)Nc1nc(NCc2ccccc2)c2ncn(C(C)C)c2n1 (centres unmarked) [P30]

Effect (β-adrenergic receptors): inactive
SMILES: CC[C@@H](CO)Nc1nc(N[C@@H](CO)c2ccccc2)c2ncn(C(C)C)c2n1 [P38]

Effect (β-adrenergic receptors): inactive
SMILES: CC(O)CNc1nc(NC(CO)c2ccccc2)c2ncn(C(C)C)c2n1 (centres unmarked) [P39]

SMILES: Nc1nc(NCc2ccccc2)c2ncn(CCOCP(=O)(O)O)c2n1 [PME-derivatives: Benzylamino, reference compound]
HIV-2 CEM IC50 (HIV-2): >20 µg/mL
